pIC50: −log10 of the molar value.
Legend:
T47D = assay: Cytotoxicity against human T47D cells assessed as growth inhibition at 10 uM after 48 hrs by sulforhodamine B assay; assay type: functional; conditions: read-out: GI
CAKI-1 = assay: Cytotoxicity against human CAKI-1 cells assessed as growth inhibition at 10 uM after 48 hrs by sulforhodamine B assay; assay type: functional; conditions: read-out: GI
MOLT-4 = assay: Cytotoxicity against human MOLT-4 cells assessed as growth inhibition at 10 uM after 48 hrs by sulforhodamine B assay; assay type: functional; conditions: read-out: GI
SN12C = assay: Cytotoxicity against human SN12C cells assessed as growth inhibition at 10 uM after 48 hrs by sulforhodamine B assay; assay type: functional; conditions: read-out: GI
HT-29 = assay: Cytotoxicity against human HT-29 cells assessed as growth inhibition at 10 uM after 48 hrs by sulforhodamine B assay; assay type: functional; conditions: read-out: GI
HL-60(TB) = assay: Cytotoxicity against human HL-60(TB) cells assessed as growth inhibition at 10 uM after 48 hrs by sulforhodamine B assay; assay type: functional; conditions: read-out: GI
[1] = biological target: Phosphatidylinositol 4,5-bisphosphate 3-kinase catalytic subunit beta isoform (Homo sapiens, UniProt P42338); assay: Inhibition of PI3Kbeta (unknown origin) using PIP2 as substrate preincubated for 10 mins followed by substrate addition and measured after 1 hr by ELISA
Phosphatidylinositol 4,5-bisphosphate 3-kinase catalytic subunit beta isoform, sequence (P42338 whole entry, canonical isoform): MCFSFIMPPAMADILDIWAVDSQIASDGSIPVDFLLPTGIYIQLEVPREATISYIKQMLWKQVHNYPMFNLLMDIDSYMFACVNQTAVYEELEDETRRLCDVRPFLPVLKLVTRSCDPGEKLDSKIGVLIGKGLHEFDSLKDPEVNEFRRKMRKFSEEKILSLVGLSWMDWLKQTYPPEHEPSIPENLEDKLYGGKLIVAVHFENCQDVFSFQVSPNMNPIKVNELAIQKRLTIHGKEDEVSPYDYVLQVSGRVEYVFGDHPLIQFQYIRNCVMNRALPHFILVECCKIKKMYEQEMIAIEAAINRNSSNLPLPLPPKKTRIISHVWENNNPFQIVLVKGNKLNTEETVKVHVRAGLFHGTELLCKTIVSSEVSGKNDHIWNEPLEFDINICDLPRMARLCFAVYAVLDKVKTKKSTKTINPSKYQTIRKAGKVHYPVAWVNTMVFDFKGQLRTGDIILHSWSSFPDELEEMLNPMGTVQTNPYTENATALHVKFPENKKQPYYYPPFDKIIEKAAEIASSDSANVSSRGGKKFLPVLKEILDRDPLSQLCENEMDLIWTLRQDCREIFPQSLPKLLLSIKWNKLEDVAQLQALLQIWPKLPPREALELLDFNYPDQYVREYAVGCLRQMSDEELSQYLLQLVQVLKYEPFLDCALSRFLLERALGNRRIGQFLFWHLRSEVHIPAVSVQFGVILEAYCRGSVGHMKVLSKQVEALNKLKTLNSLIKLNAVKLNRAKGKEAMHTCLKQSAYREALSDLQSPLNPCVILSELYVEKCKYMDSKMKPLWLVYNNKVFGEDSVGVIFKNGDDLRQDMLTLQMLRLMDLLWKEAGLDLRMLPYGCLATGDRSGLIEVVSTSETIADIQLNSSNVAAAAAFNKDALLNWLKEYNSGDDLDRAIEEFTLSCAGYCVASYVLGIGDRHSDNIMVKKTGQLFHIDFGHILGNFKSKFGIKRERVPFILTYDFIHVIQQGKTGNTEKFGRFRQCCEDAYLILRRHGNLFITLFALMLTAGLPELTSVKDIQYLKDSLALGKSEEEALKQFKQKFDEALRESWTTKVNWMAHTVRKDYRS

LOX IMVI = assay: Cytotoxicity against human LOX IMVI cells assessed as growth inhibition at 10 uM after 48 hrs by sulforhodamine B assay; assay type: functional; conditions: read-out: GI
[2] = Selectivity index, ratio of IC50 for human MCF-10A cells to IC50 for human MCF7 cells; assay type: toxicity; conditions: MCF-10A cells versus MCF7 cells, read-out: Ratio IC50
DU-145 = assay: Cytotoxicity against human DU-145 cells assessed as growth inhibition at 10 uM after 48 hrs by sulforhodamine B assay; assay type: functional; conditions: read-out: GI
MCF-10A = assay: Cytotoxicity against human MCF10A cells assessed as inhibition of cell growth incubated for 48 hrs by MTT assay; assay type: cell-based
[3] = biological target: Phosphatidylinositol 4,5-bisphosphate 3-kinase catalytic subunit alpha isoform (Homo sapiens, UniProt P42336); assay: Inhibition of PI3Kalpha (unknown origin) using PIP2 as substrate preincubated for 10 mins followed by substrate addition and measured after 1 hr by ELISA
Phosphatidylinositol 4,5-bisphosphate 3-kinase catalytic subunit alpha isoform, sequence (P42336 whole entry, canonical isoform): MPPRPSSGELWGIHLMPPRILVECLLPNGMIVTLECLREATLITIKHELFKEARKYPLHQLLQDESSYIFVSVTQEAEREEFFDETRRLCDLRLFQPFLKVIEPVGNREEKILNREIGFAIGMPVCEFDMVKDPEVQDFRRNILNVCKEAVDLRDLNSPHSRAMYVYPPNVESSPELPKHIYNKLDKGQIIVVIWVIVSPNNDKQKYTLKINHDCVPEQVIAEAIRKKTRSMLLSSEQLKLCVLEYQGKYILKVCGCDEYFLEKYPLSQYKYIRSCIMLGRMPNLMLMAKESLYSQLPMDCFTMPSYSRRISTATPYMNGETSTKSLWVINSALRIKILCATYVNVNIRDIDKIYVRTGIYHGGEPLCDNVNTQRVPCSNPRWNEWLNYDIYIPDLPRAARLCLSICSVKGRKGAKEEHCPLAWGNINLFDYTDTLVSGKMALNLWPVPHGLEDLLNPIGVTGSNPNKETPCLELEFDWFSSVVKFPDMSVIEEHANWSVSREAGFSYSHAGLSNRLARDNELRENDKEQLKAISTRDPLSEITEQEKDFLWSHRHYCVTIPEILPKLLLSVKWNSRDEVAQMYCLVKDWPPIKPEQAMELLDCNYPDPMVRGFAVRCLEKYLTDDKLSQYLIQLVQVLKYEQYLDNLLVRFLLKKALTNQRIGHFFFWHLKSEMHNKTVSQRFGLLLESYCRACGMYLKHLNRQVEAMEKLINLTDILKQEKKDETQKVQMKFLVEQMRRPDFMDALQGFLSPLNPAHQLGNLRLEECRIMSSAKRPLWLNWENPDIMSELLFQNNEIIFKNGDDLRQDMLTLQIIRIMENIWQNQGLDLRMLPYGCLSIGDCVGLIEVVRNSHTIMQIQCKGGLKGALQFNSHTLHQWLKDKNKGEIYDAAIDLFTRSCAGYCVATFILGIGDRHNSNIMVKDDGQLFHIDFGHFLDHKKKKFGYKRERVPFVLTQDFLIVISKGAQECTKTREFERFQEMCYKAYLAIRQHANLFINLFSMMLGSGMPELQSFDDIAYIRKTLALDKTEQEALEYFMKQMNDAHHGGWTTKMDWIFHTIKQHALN

UO-31 = assay: Cytotoxicity against human UO-31 cells assessed as growth inhibition at 10 uM after 48 hrs by sulforhodamine B assay; assay type: functional; conditions: read-out: GI
MCF7 [4] = assay: Induction of cell cycle arrest in human MCF7 cells assessed as accumulation of cells at G phase at IC50 concentration by Propidium iodide staining based flow cytometric analysis (reference value: 1.76%); assay type: functional
UACC-62 = assay: Cytotoxicity against human UACC-62 cells assessed as growth inhibition at 10 uM after 48 hrs by sulforhodamine B assay; assay type: functional; conditions: read-out: GI
ACHN = assay: Cytotoxicity against human ACHN cells assessed as growth inhibition at 10 uM after 48 hrs by sulforhodamine B assay; assay type: functional; conditions: read-out: GI
MCF7 [5] = assay: Induction of apoptosis in human MCF7 cells assessed as early apoptotic cells at 2.25 uM after 48 hrs by annexin V-FITC/propidium iodide staining based flow cytometric analysis (reference value: 0.36%); assay type: functional
KM12 = assay: Cytotoxicity against human KM12 cells assessed as growth inhibition at 10 uM after 48 hrs by sulforhodamine B assay; assay type: functional; conditions: read-out: GI
MCF7 [6] = assay: Induction of apoptosis in human MCF7 cells assessed as necrotic cells at 2.25 uM after 48 hrs by annexin V-FITC/propidium iodide staining based flow cytometric analysis (reference value: 1.26%); assay type: functional
NCI-H226 = assay: Cytotoxicity against human NCI-H226 cells assessed as growth inhibition at 10 uM after 48 hrs by sulforhodamine B assay; assay type: functional; conditions: read-out: GI
MCF7 [7] = assay: Induction of apoptosis in human MCF7 cells assessed as late apoptotic cells at 2.25 uM after 48 hrs by annexin V-FITC/propidium iodide staining based flow cytometric analysis (reference value: 0.14%); assay type: functional
MCF7 [8] = assay: Induction of cell cycle arrest in human MCF7 cells assessed as accumulation of cells at G2/M phase at IC50 concentration by Propidium iodide staining based flow cytometric analysis (reference value: 10.94%); assay type: functional
SR = assay: Cytotoxicity against human SR cells assessed as growth inhibition at 10 uM after 48 hrs by sulforhodamine B assay; assay type: functional; conditions: read-out: GI
RPMI-8226 = assay: Cytotoxicity against human RPMI-8226 cells assessed as growth inhibition at 10 uM after 48 hrs by sulforhodamine B assay; assay type: functional; conditions: read-out: GI
[9] = biological target: T1, Phosphatidylinositol 4,5-bisphosphate 3-kinase catalytic subunit delta isoform (Homo sapiens, UniProt O00329); assay: Inhibition of PI3Kdelta (unknown origin) using PIP2 as substrate preincubated for 10 mins followed by substrate addition and measured after 1 hr by ELISA
T1 sequence (O00329 whole entry): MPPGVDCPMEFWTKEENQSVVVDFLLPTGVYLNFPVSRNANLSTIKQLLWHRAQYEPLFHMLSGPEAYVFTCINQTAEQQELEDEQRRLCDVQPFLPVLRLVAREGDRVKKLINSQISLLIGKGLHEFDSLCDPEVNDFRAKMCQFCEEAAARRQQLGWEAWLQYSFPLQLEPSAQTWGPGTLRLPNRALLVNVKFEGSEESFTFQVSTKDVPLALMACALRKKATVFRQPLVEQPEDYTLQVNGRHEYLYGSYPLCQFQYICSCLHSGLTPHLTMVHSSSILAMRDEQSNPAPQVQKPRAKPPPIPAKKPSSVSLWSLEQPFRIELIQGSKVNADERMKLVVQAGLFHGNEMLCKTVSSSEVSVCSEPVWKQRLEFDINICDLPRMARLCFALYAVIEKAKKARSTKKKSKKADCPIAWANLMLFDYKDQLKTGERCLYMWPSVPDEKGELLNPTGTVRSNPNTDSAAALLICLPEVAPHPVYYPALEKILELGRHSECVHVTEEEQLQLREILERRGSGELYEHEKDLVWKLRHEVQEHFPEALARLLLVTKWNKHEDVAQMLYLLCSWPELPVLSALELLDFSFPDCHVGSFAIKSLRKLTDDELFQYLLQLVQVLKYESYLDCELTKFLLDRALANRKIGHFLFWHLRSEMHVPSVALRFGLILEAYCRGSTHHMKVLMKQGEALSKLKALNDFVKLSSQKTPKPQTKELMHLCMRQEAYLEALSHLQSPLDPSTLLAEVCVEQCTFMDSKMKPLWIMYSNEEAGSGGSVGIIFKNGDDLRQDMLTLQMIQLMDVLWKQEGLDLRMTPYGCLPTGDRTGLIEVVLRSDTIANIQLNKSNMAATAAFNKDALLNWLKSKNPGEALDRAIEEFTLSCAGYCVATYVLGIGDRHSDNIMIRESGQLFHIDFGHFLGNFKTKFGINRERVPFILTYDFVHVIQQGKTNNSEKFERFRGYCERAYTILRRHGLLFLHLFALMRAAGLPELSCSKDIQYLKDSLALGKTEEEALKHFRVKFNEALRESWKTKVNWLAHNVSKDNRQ

M14 = assay: Cytotoxicity against human M14 cells assessed as growth inhibition at 10 uM after 48 hrs by sulforhodamine B assay; assay type: functional; conditions: read-out: GI
MCF7 [10] = assay: Antiproliferative activity against human MCF7 cells assessed as inhibition of cell growth incubated for 48 hrs by MTT assay; assay type: functional, cell-based; conditions: MCF7, 48 h
A549 = assay: Cytotoxicity against human A549 cells assessed as growth inhibition at 10 uM after 48 hrs by sulforhodamine B assay; assay type: functional; conditions: read-out: GI
OVCAR-4 = assay: Cytotoxicity against human OVCAR-4 cells assessed as growth inhibition at 10 uM after 48 hrs by sulforhodamine B assay; assay type: functional; conditions: read-out: GI
MCF7 [11] = assay: Cytotoxicity against human MCF7 cells assessed as growth inhibition at 10 uM after 48 hrs by sulforhodamine B assay; assay type: functional; conditions: read-out: GI
K562 = assay: Cytotoxicity against human K562 cells assessed as growth inhibition at 10 uM after 48 hrs by sulforhodamine B assay; assay type: functional; conditions: read-out: GI
HCC 2998 = assay: Cytotoxicity against human HCC 2998 cells assessed as growth inhibition at 10 uM after 48 hrs by sulforhodamine B assay; assay type: functional; conditions: read-out: GI
MCF7 [12] = assay: Induction of cell cycle arrest in human MCF7 cells assessed as accumulation of cells at G1 phase at IC50 concentration by Propidium iodide staining based flow cytometric analysis (reference value: 61.45%); assay type: functional
NCI/ADR-RES = assay: Cytotoxicity against human NCI-ADR-RES cells assessed as growth inhibition at 10 uM after 48 hrs by sulforhodamine B assay; assay type: functional; conditions: read-out: GI
CCRF-CEM = assay: Cytotoxicity against human CCRF-CEM cells assessed as growth inhibition at 10 uM after 48 hrs by sulforhodamine B assay; assay type: functional; conditions: read-out: GI
HCT-15 = assay: Cytotoxicity against human HCT-15 cells assessed as growth inhibition at 10 uM after 48 hrs by sulforhodamine B assay; assay type: functional; conditions: read-out: GI
NCI-H522 = assay: Cytotoxicity against human NCI-H522 cells assessed as growth inhibition at 10 uM after 48 hrs by sulforhodamine B assay; assay type: functional; conditions: read-out: GI
MCF7 [13] = assay: Induction of cell cycle arrest in human MCF7 cells assessed as accumulation of cells at S phase at IC50 concentration by Propidium iodide staining based flow cytometric analysis (reference value: 27.61%); assay type: functional
MCF7 [14] = assay: Induction of apoptosis in human MCF7 cells assessed as late apoptotic cells at 0.72 uM after 48 hrs by annexin V-FITC/propidium iodide staining based flow cytometric analysis (reference value: 0.14%); assay type: functional
MCF7 [15] = assay: Induction of apoptosis in human MCF7 cells assessed as necrotic cells at 0.72 uM after 48 hrs by annexin V-FITC/propidium iodide staining based flow cytometric analysis (reference value: 1.26%); assay type: functional
MCF7 [16] = assay: Induction of apoptosis in human MCF7 cells assessed as early apoptotic cells at 0.72 uM after 48 hrs by annexin V-FITC/propidium iodide staining based flow cytometric analysis (reference value: 0.36%); assay type: functional

FC(F)(F)COc1ccc(-c2nnc(Nc3ccccc3)s2)cc1
inhibition of growth at 10 µM (T47D): 27.7%
inhibition of growth at 10 µM (CAKI-1): 50%
inhibition of growth at 10 µM (MOLT-4): 24.1%
inhibition of growth at 10 µM (SN12C): 13.1%
inhibition of growth at 10 µM (HT-29): 45.7%
inhibition of growth at 10 µM (HL-60(TB)): 12.6%
pIC50 [1]: 4.51
inhibition of growth at 10 µM (LOX IMVI): 18.8%
selectivity ratio [2]: 16.9
inhibition of growth at 10 µM (DU-145): 14.8%
pIC50 (MCF-10A): 4.42
pIC50 [3]: 4.71
inhibition of growth at 10 µM (UO-31): 21.4%
Activity (MCF7 [4]): 26.96%
inhibition of growth at 10 µM (UACC-62): 24.4%
inhibition of growth at 10 µM (ACHN): 16.1%
Activity (MCF7 [5]): 4.15%
inhibition of growth at 10 µM (KM12): 57.2%
Activity (MCF7 [6]): 9.72%
inhibition of growth at 10 µM (NCI-H226): 20.5%
Activity (MCF7 [7]): 13.09%
Activity (MCF7 [8]): 4.55%
inhibition of growth at 10 µM (SR): 39.3%
inhibition of growth at 10 µM (RPMI-8226): 13.4%
pIC50 [9]: 4.13
inhibition of growth at 10 µM (M14): 12.8%
pIC50 (MCF7 [10]): 5.65
inhibition of growth at 10 µM (A549): 15%
inhibition of growth at 10 µM (OVCAR-4): 12.8%
inhibition of growth at 10 µM (MCF7 [11]): 21.2%
inhibition of growth at 10 µM (K562): 57.4%
inhibition of growth at 10 µM (HCC 2998): 27.5%
Activity (MCF7 [12]): 66.34%
inhibition of growth at 10 µM (NCI/ADR-RES): 10.8%
inhibition of growth at 10 µM (CCRF-CEM): 19.2%
inhibition of growth at 10 µM (HCT-15): 50.9%
inhibition of growth at 10 µM (NCI-H522): 36.7%
Activity (MCF7 [13]): 29.11%

O=S(=O)(Oc1ccc(/C=N/N=c2\scc(-c3ccccc3)n2-c2ccccc2)cc1)C(F)(F)C(F)(F)C(F)(F)C(F)(F)F
Activity (MCF7 [14]): 21.88%
pIC50 [1]: 5.64
selectivity ratio [2]: 39.2
pIC50 (MCF-10A): 4.55
pIC50 [3]: 5.24
Activity (MCF7 [4]): 42.38%
Activity (MCF7 [15]): 14.32%
Activity (MCF7 [8]): 7.61%
pIC50 [9]: 5.10
pIC50 (MCF7 [10]): 6.14
inhibition of growth at 10 µM (MCF7 [11]): 65.5%
Activity (MCF7 [12]): 49.27%
Activity (MCF7 [16]): 6.18%
Activity (MCF7 [13]): 43.12%

From ChEMBL document CHEMBL5055672, “Design, Synthesis, Biological Evaluation, and Computational Studies of Novel Fluorinated Candidates as PI3K Inhibitors: Targeting Fluorophilic Binding Sites” (J Med Chem, 2021)
